Structures are written as SMILES. Like-named read-outs stand apart in the source and are kept apart here.

Data set [1] is described as follows: CCK-8 cell viability assay. It is filed as cell-based, Murine. Conditions: mouse. As for the experimental part: (§1) Murine RAW 264.7 macrophages were purchased from the American Tissue Culture Collection (Manassas, USA). These cells were incubated in DMEM supplemented with 10% FBS, 100 U/mL penicillin and 100 U/mL streptomycin in humidified 5% carbon dioxide (CO2) at 37 °C [16, 17].
The effects of 19 constituents on the viability of RAW 264.7 macrophages were assessed by CCK-8 assay. Prior to treatment, RAW 264.7 macrophages (5 × 10^3 cells/well) were seeded into 96-well plates and incubated for 24 h. All cultured cells were treated with or without 19 compounds at a concentration of 40 μM at 37 °C for 24 h. After incubation, 10 μL of CCK-8 solution was added to each well and incubated at 37 °C. After 2 h, the absorbance of each well was measured at 450 nm in a microplate reader. Cell viability was calculated using the following formular:
Cell viability (%) = Asample/Acontrol × 100, where Asample and Acontrol are the absorbance of cells treated with the compound and untreated cells, respectively. Moreover, the latter is expressed as 100% cell viability.

The subject of data set [2] is NO production in LPS-stimulated RAW 264.7 macrophages. Put plainly: NO production by the Griess method. The data set is classed as cell-based, Murine. The following applies: LPS 1 μg/mL; for IC50: RAW 264.7 macrophages, mean ± SD, n = 3; for inhibition at 40 µM: RAW264.7, read-out: NO inhibition rate. As for the experimental part: as §1
The effects of 19 constituents on NO production in LPS-induced RAW 264.7 macrophages were determined using the Griess method. Prior to treatment, RAW 264.7 macrophages (5 × 10^3 cells/well) were seeded into 96-well plates and incubated for 24 h. […] After 1 h, cells were incubated with or without LPS at a concentration of 1 μg/mL at 37 °C for 24 h. After incubation, 50 μL of each supernatant solution was collected and mixed with equal volumes of Griess Reagent I and Griess Reagent II, respectively. The absorbance (A) was measured at 540 nm after 10 min of incubation at room temperature. The standard concentration of sodium nitrite was used to calculate the nitrite concentration. Moreover, the NO inhibition rate (%) = (ALPS − ALPS + sample)/(ALPS − Acontrol) × 100, where ALPS, ALPS + sample, and Acontrol are the absorbance of LPS model group, LPS + sample group, and DMEM group, respectively.

The subject of data set [3] is BV2 microglia. Further details: method as in PMID 22552813. Conditions: 40, 60 and 80 μM; cited from earlier work.
For data set [4], the system named is TNF-α in LPS-stimulated RAW 264.7 macrophages. Kind of data set: TNF-α secretion by ELISA. The data set is classed as cell-based, Murine. Conditions: 20 μM, LPS 1 μg/mL, 24 h, compared to the LPS group, p < 0.01. As for the experimental part:
(§2) The logarithmic growth phase of RAW 264.7 macrophages was inoculated in 96-well plates at a density of 5 × 10^3 cells/well. After 24 h of incubation, these cells were pretreated with respective concentrations of 20 μM of each compound (1, 4–6, 15 and 17) for 1 h, followed by the addition of LPS (1 μg/mL) for 24 h. Finally, 50 μL of each supernatant solution was taken to measure the concentrations of TNF-α, PGE2, IL-1β and IL-6, using the corresponding commercially available murine ELISA kits in accordance with the manufacturer’s instructions.

Data set [5] deals with PGE2 in LPS-stimulated RAW 264.7 macrophages. Kind of data set: PGE2 secretion by ELISA. It is filed as cell-based, Murine. The following applies: 20 μM, LPS 1 μg/mL, 24 h, compared to the LPS group, p < 0.01. As for the experimental part: as §2
The subject of data set [6] is IL-1β in LPS-stimulated RAW 264.7 macrophages. Put plainly: IL-1β secretion by ELISA. The data set is classed as cell-based, Murine. The following applies: 20 μM, LPS 1 μg/mL, 24 h, compared to the LPS group, p < 0.01. As for the experimental part:
as §2

Data set [7] deals with IL-6 in LPS-stimulated RAW 264.7 macrophages. Put plainly: IL-6 secretion by ELISA. It is filed as cell-based, Murine. Conditions: 20 μM, LPS 1 μg/mL, 24 h, compared to the LPS group, p < 0.01. The procedure:
as §2

In data set [8] the test system is phosphorylated NF-κB p65 in LPS-stimulated RAW 264.7 macrophages. Kind of data set: NF-κB activation by Western blotting. It is filed as cell-based, Murine. The following applies: 20 μM, LPS 1 μg/mL, 24 h, compared to the LPS group, p < 0.01. The procedure:
RAW 264.7 macrophages were seeded and pretreated with respective concentrations of 20 μM of each compound (1, 4–6, 15 and 17) for 1 h, followed by the addition of LPS (1 μg/mL) for 24 h. Subsequently, the total protein was extracted by resuspending the cells in RIPA lysis buffer. In addition, protein concentrations were measured by a Bicinchoninic acid (BCA) assay kit. Proteins were separated using SDS-PAGE gels and then electroplated onto a PVDF membrane, which was blocked with 5% skim milk for 1 h at room temperature in Tris-buffered saline-Tween (TBST). Membranes were washed three times with TBST and then incubated overnight at 4 °C in diluted (1:1000) primary antibody solution (anti-NF-κB p65 or anti-phosphorylated-NF-κB p65). After washing three times with TBST, the membranes were incubated with a 1:5000 dilution of HRP-conjugated secondary antibody for 1 h at room temperature. The immunoreactive bands were determined by densitometry and quantified using a Bio-Rad auto-developer (Bio-Rad, California, USA). All results are expressed as relative ratios to the reference protein GAPDH [16, 17].

Data set [9] relates to inflammatory cytokines in cells. Further details: method as in PMID 20221843, PMID 12105943, PMID 18448292, PMID 25821492. The following applies: cited from earlier work.

As for `O=C1C[C@@H](c2ccc(O)cc2)Oc2cc(O)cc(O)c21` [Compound 14, naringenin], in [1] (40 μM, 24 h, RAW 264.7 macrophages, mean ± SD, n = 3, read-out: Cell viability (%)), the viability at 24 h, 40 µM was determined as 93 ± 6.19%. Also, the concentration for half-maximal inhibition (IC50) in data set [2] (Mus musculus, RAW264.7, 24 h) came to 38.5 ± 2.78 µM. Further, the inhibition at 40 µM in data set [2] (Mus musculus, 24 h) was over 50%. Besides, the “Anti-inflammatory effect via inhibition of NF-κB and MAPKs pathways” value in data set [3] is given as “possessed anti-inflammatory effect”.

For `O=C1c2c(O)cc(O)cc2O[C@H](c2ccc(O)cc2)[C@H]1O` [Compound 15, dihydrokaempferol], in [1], the viability at 24 h, 40 µM worked out at 91.3 ± 5.38%. Also, the IC50 in data set [2] (24 h) was 18.3 ± 1.71 µM; in data set [2] (Mus musculus, RAW264.7, 24 h), at most 20 µM. Besides, in data set [2] (Mus musculus, 24 h), the inhibition at 40 µM is over 50%. Besides, the “Level of TNF-α” value in data set [4] is given as “significantly reduced”. For the same compound, the “Level of PGE2” value in data set [5] is reported as “significantly reduced”. Moreover, the “Level of IL-1β” value in [6] is on record as “significantly reduced”. The “Level of IL-6” value in data set [7] is “significantly reduced”. Moreover, the “Phosphorylation of NF-κB p65 levels” value in data set [8] was “significantly lower”. In addition, the “Anti-inflammatory effects by suppressing the secretion of inflammatory cytokines” value in [9] is “anti-inflammatory effects”.
